ChEMBL document CHEMBL4825666, “Antitrypanosomal Lactones from Nectandra barbellata” (J Nat Prod, 2021)
Active and inactive are the calls of the source. The calls are words filed in the database; no cut-off is given here.

How the values were obtained:
Cytochrome P450 2D6 = Cytochrome P450 2D6 (Homo sapiens, UniProt P10635); experiment: Inhibition of CYP2D6 (unknown origin); type: ADME
Trypanosoma cruzi [1] = experiment: Induction of mitochondrial membrane depolarization in trypomastigote forms of Trypanosoma cruzi Y at IC50 measured after 2 hrs by JC-1 staining based flow cytometry; type: functional, organism-based
Cytochrome P450 1A2 = molecular target: T1, Cytochrome P450 1A2 (Homo sapiens, UniProt P05177); experiment: Inhibition of CYP1A2 (unknown origin); type: ADME
T1 sequence (P05177 whole entry): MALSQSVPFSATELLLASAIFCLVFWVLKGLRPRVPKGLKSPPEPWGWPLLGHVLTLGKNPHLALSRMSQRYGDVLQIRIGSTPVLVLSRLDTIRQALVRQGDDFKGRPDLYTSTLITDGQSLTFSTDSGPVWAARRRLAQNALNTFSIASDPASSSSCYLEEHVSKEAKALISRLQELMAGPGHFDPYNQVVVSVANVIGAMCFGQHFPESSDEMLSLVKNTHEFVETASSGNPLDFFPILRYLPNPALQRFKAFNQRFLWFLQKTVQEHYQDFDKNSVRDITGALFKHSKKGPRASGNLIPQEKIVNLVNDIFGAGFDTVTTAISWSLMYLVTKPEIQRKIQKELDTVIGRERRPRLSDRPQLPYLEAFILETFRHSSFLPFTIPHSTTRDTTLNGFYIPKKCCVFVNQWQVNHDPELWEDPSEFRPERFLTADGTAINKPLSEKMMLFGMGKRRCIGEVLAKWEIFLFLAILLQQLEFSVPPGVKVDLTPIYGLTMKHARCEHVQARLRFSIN

Cell membrane [2] = experiment: Induction of plasma membrane depolarization in trypomastigote forms of Trypanosoma cruzi Y at IC50 measured after 2 hrs by DiSBAC2(3)-probe based assay
Trypanosoma cruzi [3] = experiment: Antitrypanosomal activity against Trypanosoma cruzi Y assessed as increase in calcium level at IC50 measured upto 160 min by Fluo-4 AM probe-based spectrofluorimetric method; type: functional, organism-based; conditions: time min <=160
Trypanosoma cruzi [4] = experiment: Antitrypanosomal activity against trypomastigote forms of Trypanosoma cruzi Y infected in LLC-MK2 cells assessed as parasite growth inhibition by resazurin assay; type: functional, organism-based
Trypanosoma cruzi [5] = experiment: Antitrypanosomal activity against trypomastigote forms of Trypanosoma cruzi Y assessed as increase in ATP levels at IC50 incubated for 1 hrs by microplate reader method; type: functional, organism-based
Trypanosoma cruzi [6] = experiment: Induction of ROS generation in trypomastigote forms of Trypanosoma cruzi Y assessed as effect on reactive oxygen species level at IC50 for 2 hrs by fluorimetric microplate reader method; type: functional, organism-based
Cytochrome P450 2C19 = Cytochrome P450 2C19 (Homo sapiens, UniProt P33261); experiment: Inhibition of CYP2C19 (unknown origin); type: ADME
Sequence of Cytochrome P450 2C19 (P33261 whole entry): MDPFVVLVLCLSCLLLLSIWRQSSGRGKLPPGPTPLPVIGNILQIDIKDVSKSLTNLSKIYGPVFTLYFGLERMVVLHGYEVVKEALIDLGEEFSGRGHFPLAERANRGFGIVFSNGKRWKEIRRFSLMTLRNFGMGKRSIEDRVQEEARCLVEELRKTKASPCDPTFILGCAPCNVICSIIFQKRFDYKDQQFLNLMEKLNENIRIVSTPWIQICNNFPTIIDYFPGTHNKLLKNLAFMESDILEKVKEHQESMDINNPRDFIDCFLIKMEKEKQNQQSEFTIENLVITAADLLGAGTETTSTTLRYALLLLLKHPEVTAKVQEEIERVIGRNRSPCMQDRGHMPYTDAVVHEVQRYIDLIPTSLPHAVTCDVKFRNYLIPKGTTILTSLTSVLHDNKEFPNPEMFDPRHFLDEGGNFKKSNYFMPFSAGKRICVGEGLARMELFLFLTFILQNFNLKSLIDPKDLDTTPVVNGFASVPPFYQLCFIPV

Trypanosoma cruzi [7] = experiment: Induction of acidocalcisome alkalinization in trypomastigotes form of Trypanosoma cruzi Y assessed as upregulation of Ca2+ level at IC50 using acridine orange measured after 60 min by fluorescent based assay
Cell membrane [8] = experiment: Induction of cell membrane permeability in trypomastigote forms of Trypanosoma Cruzi Y at IC50 measured after 80 mins by SYSTOX Green assay; type: subcellular
[9] = Selectivity index, ratio of CC50 for cytotoxicity against mouse NCTC clone 929 cells to IC50 for trypomastigote forms of Trypanosoma cruzi Y infected in LLC-MK2 cells; type: toxicity, cell-based; conditions: read-out: Ratio CC50/IC50
Cell membrane [10] = experiment: Induction of cell membrane permeability in trypomastigote forms of Trypanosoma Cruzi Y at IC50 measured after 120 mins by SYSTOX Green assay; type: subcellular
Cytochrome P450 2C9 = Cytochrome P450 2C9 (Homo sapiens, UniProt P11712); experiment: Inhibition of CYP2C9 (unknown origin); type: ADME
Sequence of Cytochrome P450 2C9 (P11712 whole entry): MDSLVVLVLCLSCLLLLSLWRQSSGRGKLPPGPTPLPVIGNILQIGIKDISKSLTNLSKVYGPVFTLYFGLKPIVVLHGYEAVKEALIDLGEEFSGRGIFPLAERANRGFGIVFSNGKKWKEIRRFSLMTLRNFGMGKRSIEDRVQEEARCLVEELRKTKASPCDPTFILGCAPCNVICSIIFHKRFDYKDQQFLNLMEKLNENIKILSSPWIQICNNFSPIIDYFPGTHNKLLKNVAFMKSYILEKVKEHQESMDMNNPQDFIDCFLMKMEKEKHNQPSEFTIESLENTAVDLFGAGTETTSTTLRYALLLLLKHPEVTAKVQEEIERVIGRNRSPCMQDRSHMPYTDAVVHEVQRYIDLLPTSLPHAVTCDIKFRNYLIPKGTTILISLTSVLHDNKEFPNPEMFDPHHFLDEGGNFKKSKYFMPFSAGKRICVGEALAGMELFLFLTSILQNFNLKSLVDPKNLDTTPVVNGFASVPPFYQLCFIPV

[11] = Cytotoxicity against mouse NCTC clone 929 cells assessed as reduction in cell viability after 48 hrs by MTT assay; type: cell-based
Cytochrome P450 3A4 = Cytochrome P450 3A4 (Homo sapiens, UniProt P08684); experiment: Inhibition of CYP3A4 (unknown origin); type: ADME
Sequence of Cytochrome P450 3A4 (P08684 whole entry): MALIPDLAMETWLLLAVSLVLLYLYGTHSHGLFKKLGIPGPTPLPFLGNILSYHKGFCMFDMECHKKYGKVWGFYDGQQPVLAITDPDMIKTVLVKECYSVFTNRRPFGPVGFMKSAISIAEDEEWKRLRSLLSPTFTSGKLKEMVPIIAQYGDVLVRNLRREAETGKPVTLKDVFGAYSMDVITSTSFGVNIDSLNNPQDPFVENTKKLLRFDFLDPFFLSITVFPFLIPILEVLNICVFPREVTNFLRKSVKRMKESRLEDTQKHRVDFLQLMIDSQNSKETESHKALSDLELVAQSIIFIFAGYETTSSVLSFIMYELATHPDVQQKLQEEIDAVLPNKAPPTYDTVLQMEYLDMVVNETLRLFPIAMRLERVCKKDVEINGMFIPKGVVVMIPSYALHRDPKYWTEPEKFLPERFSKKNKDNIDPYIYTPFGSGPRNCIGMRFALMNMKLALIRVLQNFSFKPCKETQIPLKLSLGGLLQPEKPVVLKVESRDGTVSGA

Trypanosoma cruzi [12] = experiment: Antitrypanosomal activity against trypomastigote forms of Trypanosoma cruzi Y assessed as increase in ATP levels at IC50 incubated for 2 hrs by microplate reader method; type: functional, organism-based

Sequence of Cytochrome P450 2D6 (P10635 whole entry): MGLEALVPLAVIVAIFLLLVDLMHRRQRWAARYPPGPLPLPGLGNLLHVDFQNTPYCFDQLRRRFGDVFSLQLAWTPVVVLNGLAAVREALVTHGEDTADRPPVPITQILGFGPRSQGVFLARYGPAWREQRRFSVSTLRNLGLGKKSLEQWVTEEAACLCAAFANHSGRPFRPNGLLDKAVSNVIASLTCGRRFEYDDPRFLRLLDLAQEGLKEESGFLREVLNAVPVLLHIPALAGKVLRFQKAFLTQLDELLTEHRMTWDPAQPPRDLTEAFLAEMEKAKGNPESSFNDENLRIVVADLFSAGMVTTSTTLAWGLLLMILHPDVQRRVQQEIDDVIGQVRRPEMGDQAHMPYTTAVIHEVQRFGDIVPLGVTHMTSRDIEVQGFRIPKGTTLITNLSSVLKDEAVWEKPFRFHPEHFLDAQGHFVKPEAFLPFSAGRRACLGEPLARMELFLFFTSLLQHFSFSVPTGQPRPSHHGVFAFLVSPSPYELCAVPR

With `C=CCCCCCCCCCCCCC/C=C1/C[C@H](CO)OC1=O` the “inhibition (INH)” value (Cytochrome P450 2D6) was “Active”, the Activity (Trypanosoma cruzi [1]) was “Active” and the “inhibition (INH)” value (Cytochrome P450 1A2) was “Active”. For the same molecule, the Activity (Cell membrane [2]) was “Active”, the Activity (Trypanosoma cruzi [3]) was “Active” and the IC50 (Trypanosoma cruzi [4]) was 13.1 µM. For the same molecule, the Activity (Trypanosoma cruzi [5]) was “Active”, the Activity (Trypanosoma cruzi [6]) was “inactive” and the “inhibition (INH)” value (Cytochrome P450 2C19) was “Active”. The Activity (Trypanosoma cruzi [7]) was “Active”, the Activity (Cell membrane [8]) was “Active” and the selectivity ratio [9] was greater than 15.3. For the same molecule, the Activity (Cell membrane [10]) was “inactive”, the “inhibition (INH)” value (Cytochrome P450 2C9) was “Active” and the CC50 at 48 h [11] was greater than 200 µM. For the same molecule, the “inhibition (INH)” value (Cytochrome P450 3A4) was “Active”.

In the case of `O=C(Cn1ccnc1[N+](=O)[O-])NCc1ccccc1` [BENZNIDAZOLE], the IC50 (Trypanosoma cruzi [4]) is reported as 16.4 µM, the selectivity ratio [9] is reported as greater than 12.2 and the CC50 at 48 h [11] is reported as greater than 200 µM.

In the case of `CCCCCCCCCCCCCCC/C=C1/C[C@H](CO)OC1=O`, the “inhibition (INH)” value (Cytochrome P450 2D6) is reported as “Active”, the “inhibition (INH)” value (Cytochrome P450 1A2) is reported as “Active” and the Activity (Cell membrane [2]) is reported as “Active”. For the same molecule, the IC50 (Trypanosoma cruzi [4]) was 4 µM, the “inhibition (INH)” value (Cytochrome P450 2C19) was “Active” and the selectivity ratio [9] was 17.8. The “inhibition (INH)” value (Cytochrome P450 2C9) was “Active”, the CC50 at 48 h [11] was 71.2 µM and the “inhibition (INH)” value (Cytochrome P450 3A4) was “Active”.

With `CCCCCCCCCCCCCCCCCCCCC/C=C1/C[C@H](CO)OC1=O` the “inhibition (INH)” value (Cytochrome P450 2D6) was “Not Active”, the Activity (Trypanosoma cruzi [1]) was “Active” and the “inhibition (INH)” value (Cytochrome P450 1A2) was “Not Active”. For the same molecule, the Activity (Cell membrane [2]) was “Active”, the Activity (Trypanosoma cruzi [3]) was “Active” and the IC50 (Trypanosoma cruzi [4]) was 2.1 µM. The Activity (Trypanosoma cruzi [5]) was “inactive”, the Activity (Trypanosoma cruzi [6]) was “inactive” and the “inhibition (INH)” value (Cytochrome P450 2C19) was “Not Active”. The Activity (Trypanosoma cruzi [7]) was “Active”, the Activity (Cell membrane [8]) was “Active” and the selectivity ratio [9] was greater than 95.2. For the same molecule, the Activity (Cell membrane [10]) was “inactive”, the “inhibition (INH)” value (Cytochrome P450 2C9) was “Not Active” and the CC50 at 48 h [11] was greater than 200 µM. The Activity (Trypanosoma cruzi [12]) was “inactive” and the “inhibition (INH)” value (Cytochrome P450 3A4) was “Not Active”.
